Consider two compounds from US8481028B2, “Compositions for preparing a coffee beverage comprising hydrolysed chlorogenic acid” (Nestec S.A., priority 2008, dated 2013).

The subject of data set [1] is Lactobacillus johnsonii (CNCM I-1225). Description: Gastric small-intestinal model (TIM), hydrolysis of 5-CQA during simulated digestion. Conditions: 6 h digestion, with addition of L. johnsonii.
Procedure: The gastric small-intestinal model, TIM-1, comprises four connected compartments that represent the stomach, duodenum, jejunum and ileum, respectively. Each compartment consists of a glass outer wall with a flexible inner wall. The flexible wall is surrounded by water at 37° C. to squeeze the walls, which ensures mixing of the food with the secreted enzymes by peristaltic movements in the gastro-intestinal tract.
The experiments in the model were performed under average physiological conditions of the gastro-intestinal tract. During the experiments, the temperature was kept at 37° C. and salivary, gastric, biliary, and pancreatic secretions were simulated. The digestion process in the model was monitored for 6 h. During the first 3.5 h, the gastric content was gradually delivered into the small intestine “pyloric valve”. […]
4.5 g of NESCAFE PROTECT® (a co-extract of green and roasted coffee beans) were dissolved in 310 ml acetate buffer (20 mM, pH 6.5). […] After 6 h experiment, the residues from the compartments of the stomach, duodenum, jejunum and ileum were analysed to calculate the mass balance of chlorogenic acids. […] After 6 h, the residues from the compartments of the stomach, duodenum, jejunum and ileum were analysed by HPLC to calculate the mass balance of 5-caffeoyl quinic acid.
Data set [2] concerns spray-dried preparation of Lactobacillus johnsonii (CNCM I-1225). Description: Treatment of green coffee extract with spray-dried preparation of L. johnsonii, HPLC. As to the method: 30 mg of a dried green coffee extract was dissolved in 1 ml phosphate buffer (50 mM, pH 7.0) or in 1 ml water. To this solution, 10 mg of a spray-dried preparation of Lactobacillus johnsonii (3.3 E9 cfu/g) was added. The mixture was then incubated at 37° C. and samples were withdrawn at different reaction times. After centrifugation (3000 g, 5 min) and filtration (0.45 μm pore size syringe filters, Millipore SLHA 025 BS) the samples were analysed by HPLC.
(§1) Coffee samples were diluted to 1% w/w and analyzed by RP-HPLC on a CC 250/4 Nucleosil 100-5-C18 column (Macherey-Nagel). The eluent system was Millipore water, 0.1% TFA and CH3CN at a flow rate of 1 mL/min. The method allowed the simultaneous determination of caffeoyl quinic acids (CQA), feruloyl quinic acids (FQA), di-caffeoyl quinic acids (diCQA), feruloyl quinic acid-lactones, caffeic acid (CA) and ferulic acid (FA) (absorbance at 325 nm) using external standard calibration curves. Results were expressed relative to the reference at time 0 (t0) or to the reference at the same time without bacteria.

Data set [3] shares this test system. Kind of data set: Treatment of NESCAFE PROTECT with spray-dried preparation of L. johnsonii, HPLC. As to the method:
To this solution, 10 mg of a spray-dried preparation of Lactobacillus johnsonii (CNCM I-1225) (3.3 E9 cfu/g) were added. The mixture was then incubated at 37° C. and samples were withdrawn at different reaction times. After centrifugation (3000 g, 5 min) and filtration (0.45 μm pore size syringe filters, Millipore SLHA 025 BS) the samples were analysed by HPLC.
as §1

Data set [4] deals with Lactobacillus johnsonii (CNCM I-1225) extract (lysed cells). Description: Treatment of NESCAFE PROTECT with L. johnsonii extract (lysed cells), HPLC. The class given is biochemical. How it is done:
Cells of L. johnsonii (CNCM I-1225) were grown (7.0 E08 cfu/ml) and centrifuged (5000 g, 10 min), the pellets were resuspended in phosphate buffer (50 mM, pH 7.0) at a concentration of 0.61 g/ml. The cells were then lysed using the glass-beads method. 600 μl of cells preparation were put in screw-cap tubes and 600 μl of glass-beads were added at 0° C. The tubes were then put into a Mini-Beadbeater for 1 min of intense shaking, cooled in ice, and put another 1 min in the Mini-Beadbeater. […] Samples were withdrawn at different reaction times, centrifuged (3000 g, 5 min), filtered through 0.45 μm pore size syringe filters (Millipore SLHA 025 BS) and analysed by HPLC.
as §1

In data set [5] the test system is Lactobacillus johnsonii (CNCM I-1225). Kind of data set: Treatment of coffee extracts with bacteria cells (L. johnsonii), HPLC. As to the method:
as §1
(§2) Tested strains were harvested (centrifugation at 5000 g for 10 min) after having well reached stationary phase, corresponding to 16 hours of incubation in culture medium at 37° C. in anaerobic atmosphere without agitation. For a first activation of the strains, frozen stock cultures were inoculated in fresh media and grown overnight. This pre-culture was used to inoculate the culture.
(§3) After culture of bacteria and centrifugation, the pellets were resuspended in phosphate buffer (pH 7.0) at a concentration of 0.61 g/ml. To 200 μl of this cells preparation, 800 μl of a coffee solution (3%) was added and the mixture was incubated at 37° C. for 4 h, 16 h and 24 h.

The test system of data set [6] is Chlorogenate esterase. Description: Incubation of coffee extracts with chlorogenate esterase, HPLC. The format is biochemical, Aspergillus japonicus. As to the method: as §1
Chlorogenate esterase (24 U/g), derived from Aspergillus japonicus (Kikkoman, Japan). Tannase from Aspergillus oryzae (Kikkoman, Japan) Preparation of Bacteria Cells
A solution of chlorogenate esterase (25 mg) in 200 μl phosphate buffer (pH 7.0) was added to 800 μl of a coffee solution (3%). The mixture was then incubated at 37° C. for 4 h, 16 h and 24 h. After reaction time, the enzymatic activity was stopped by heat treatment (3 min, 90° C.) and the mixture was filtered before analysis.

Data set [7] relates to Lactobacillus johnsonii (CNCM I-1225) fresh cells. Description: Treatment of NESCAFE PROTECT with L. johnsonii fresh cells, HPLC of chlorogenic and phenolic acids. How it is done:
Cells of L. johnsonii (CNCM I-1225) were grown (7.0 E08 cfu/ml) and centrifuged (5000 g, 10 min), the pellets were resuspended in phosphate buffer (50 mM, pH 7.0) at a concentration of 0.61 g/ml. […] Samples were withdrawn at different reaction times, centrifuged (3000 g, 5 min) and filtered through 0.45 μm pore size syringe filters (Millipore SLHA 025 BS) and analysed by HPLC.
A reaction control was run in parallel under the same reaction conditions but without bacteria.
as §1

Data set [8] concerns concentrated preparation of Lactobacillus johnsonii (CNCM I-1225). Description: Treatment of NESCAFE with concentrated preparation of L. johnsonii, HPLC. How it is done:
400 mg of NESCAFE SPECIAL FILTRE® (a dried extract of roasted coffee beans) were dissolved in 1 ml of boiling water and the solution was cooled to 37° C. at room temperature. To 250 μl of this coffee solution, different amounts of concentrated preparation of Lactobacillus johnsonii (50 μl, 100 μl, 350 μl, 750 μl) were added and the volume was adjusted to 1 ml with water. The mixtures were than incubated at 37° C. for 2 h and 4 h. After centrifugation (3000 g, 5 min) and filtration the samples were analysed by HPLC.
as §1

For data set [9], the system named is Bifidobacterium lactis BB12 (CNCM I-3446). Description: Treatment of coffee extracts with bacteria cells (B. lactis), HPLC. How it is done: as §1, §2, §3

Take `O=C(/C=C/c1ccc(O)c(O)c1)O[C@@H]1C[C@@](O)(C(=O)O)C[C@@H](O)[C@@H]1O` [5-CQA, 5-caffeoyl quinic acid]: the “% hydrolysis of 5-CQA (% hydrolysed of total 5-CQA present in the samples)” value in [1] is reported as 48%.

For the compound feruloyl quinic acids [FQA], the “% relative to untreated control at t = 0” value in data set [2] (4 h) turned out to be 79%; in data set [2] (6 h) it was 71%; in [2] (16 h), 48%; in [2] (24 h), 52%; in [3] (2 h), 82%; in data set [3] (6 h), 60%. Moreover, the “% relative to untreated control at t = 0” value was 34% in data set [3] (24 h); 42% in data set [5] (NESCAFE PROTECT + Lactobacillus johnsonii, 4 h); 21% in data set [5] (NESCAFE PROTECT + Lactobacillus johnsonii, 16 h); 20% in [5] (NESCAFE PROTECT + Lactobacillus johnsonii, 24 h); 49% in [5] (green coffee extract + Lactobacillus johnsonii, 4 h); 15% in data set [5] (green coffee extract + Lactobacillus johnsonii, 16 h). Moreover, the “% relative to untreated control at t = 0” value in data set [5] (green coffee extract + Lactobacillus johnsonii, 24 h) was 15%; in data set [6] (NESCAFE PROTECT + Chlorogenate esterase, 4 h) it was 54%; in data set [6] (NESCAFE PROTECT + Chlorogenate esterase, 16 h) it was 15%; in data set [6] (NESCAFE PROTECT + Chlorogenate esterase, 24 h), 14%; in data set [6] (green coffee extract + Chlorogenate esterase, 4 h), 73%; in data set [6] (green coffee extract + Chlorogenate esterase, 16 h) it was 24%. Moreover, the “% relative to untreated control at t = 0” value is listed as 23% in data set [6] (green coffee extract + Chlorogenate esterase, 24 h); 90% in data set [8] (cell amount 50 μL/1 mL, 2 h); 89% in [8] (cell amount 50 μL/1 mL, 4 h); 82% in data set [8] (cell amount 100 μL/1 mL, 2 h); 74% in [8] (cell amount 100 μL/1 mL, 4 h); 61% in data set [8] (cell amount 350 μL/1 mL, 2 h). Further, the “% relative to untreated control at t = 0” value is given as 53% in data set [8] (cell amount 350 μL/1 mL, 4 h); 41% in [8] (cell amount 750 μL/1 mL, 2 h); 37% in data set [8] (cell amount 750 μL/1 mL, 4 h); 54% in data set [9] (NESCAFE PROTECT + Bifidobacterium lactis, 4 h); 23% in data set [9] (NESCAFE PROTECT + Bifidobacterium lactis, 16 h); 20% in [9] (NESCAFE PROTECT + Bifidobacterium lactis, 24 h). The “% relative to untreated control at t = 0” value in [9] (green coffee extract + Bifidobacterium lactis, 4 h) was 33%; in [9] (green coffee extract + Bifidobacterium lactis, 16 h) it was 12%; in data set [9] (green coffee extract + Bifidobacterium lactis, 24 h), 6%. Moreover, the “Concentration in % relative to untreated reference at t = 0” value in data set [4] (2 h, cell preparation 100.0 uL) came out at 36%; in [4] (2 h, cell preparation 350.0 uL), 15%; in [4] (6 h, cell preparation 100.0 uL), 18%; in data set [4] (6 h, cell preparation 350.0 uL) it was 11%; in [7] (6 h, cell preparation 100 uL) it was 42%; in [7] (6 h, cell preparation 350 uL), 17%. Besides, the “Concentration in % relative to untreated reference at t = 0” value in data set [7] (6 h, cell preparation 750 uL) stood at 8%; in data set [7] (24 h, cell preparation 100 uL), 17%; in [7] (24 h, cell preparation 350 uL) it was 4%; in data set [7] (24 h, cell preparation 750 uL), 0%.
